Source: ChEMBL document CHEMBL5724914, “Linking interpersonal differences in gut microbiota composition and drug biotransformation activity” (2024)

Legend:
[1] = (§1) The drug is tested on WLS-086 corresponding to human gut metagenome with ENA study accession number: PRJEB37062 and ENA sample accession number: ERS12561752 for biotransformation under anaerobic condition. The drug concentrations were measured over 9 timepoints collected between 0 and 24 hours of incubation by liquid-chromatography-coupled mass spectrometry (LC–MS); details: 2 µM
[2] = as §1, with “WLS-038” for “WLS-086”, “ERS12561745” for “ERS12561752”; details: 2 µM
[3] = human gut metagenome, 24 h, 2 µM
[4] = human gut metagenome, 24 h, 2 µM; remark: listed apart in the source
[5] = as §1, with “Z-004” for “WLS-086”, “to” for “to human gut”, “ERS12561804” for “ERS12561752”; details: 2 µM
[6] = human gut metagenome, 24 h, 2 µM; remark: listed apart in the source
[7] = human gut metagenome, 24 h, 2 µM; remark: listed apart in the source
[8] = as §1, with “Z-028” for “WLS-086”, “mouse” for “human”, “ERS12561827” for “ERS12561752”; details: 2 µM
[9] = human gut metagenome, 24 h, 2 µM; remark: listed apart in the source
[10] = as §1, with “Z-006” for “WLS-086”, “mouse” for “human”, “ERS12561806” for “ERS12561752”; details: 2 µM
[11] = as §1, with “Z-011” for “WLS-086”, “mouse” for “human”, “ERS12561811” for “ERS12561752”; details: 2 µM
[12] = as §1, with “WLS-240” for “WLS-086”, “ERS12561773” for “ERS12561752”; details: 2 µM
[13] = as §1, with “Z-017” for “WLS-086”, “mouse” for “human”, “ERS12561816” for “ERS12561752”; details: 2 µM
[14] = human gut metagenome, 24 h, 2 µM; remark: listed apart in the source
[15] = as §1, with “Z-025” for “WLS-086”, “rabbit” for “human”, “ERS12561824” for “ERS12561752”; details: 2 µM
[16] = as §1, with “WLS-310” for “WLS-086”, “ERS12561785” for “ERS12561752”; details: 2 µM
[17] = as §1, with “Z-013” for “WLS-086”, “rabbit” for “human”, “ERS12561813” for “ERS12561752”; details: 2 µM
[18] = human gut metagenome, 24 h, 2 µM; remark: listed apart in the source
[19] = as §1, with “Z-012” for “WLS-086”, “to” for “to human gut”, “ERS12561812” for “ERS12561752”; details: 2 µM
[20] = as §1, with “Z-022” for “WLS-086”, “mouse” for “human”, “ERS12561821” for “ERS12561752”; details: 2 µM
Note: call rule not given here.

SMILES: Nc1nnc(-c2cccc(Cl)c2Cl)c(N)n1 [LAMOTRIGINE]
- Bacterial Biotransformation [1]: Compound metabolized
- Bacterial Biotransformation [2]: Compound NOT metabolized
- Bacterial Biotransformation [3]: Compound NOT metabolized
- Bacterial Biotransformation [4]: Compound NOT metabolized
- Bacterial Biotransformation [5]: Compound NOT metabolized
- Bacterial Biotransformation [6]: Compound NOT metabolized
- Bacterial Biotransformation [7]: Compound NOT metabolized
- Bacterial Biotransformation [8]: Compound NOT metabolized
- Bacterial Biotransformation [9]: Compound metabolized
- Bacterial Biotransformation [10]: Compound NOT metabolized
- Bacterial Biotransformation [11]: Compound NOT metabolized
- Bacterial Biotransformation [12]: Compound metabolized
- Bacterial Biotransformation [13]: Compound NOT metabolized
- Bacterial Biotransformation [14]: Compound NOT metabolized
- Bacterial Biotransformation [15]: Compound NOT metabolized
- Bacterial Biotransformation [16]: Compound NOT metabolized
- Bacterial Biotransformation [17]: Compound NOT metabolized
- Bacterial Biotransformation [18]: Compound NOT metabolized
- Bacterial Biotransformation [19]: Compound NOT metabolized
- Bacterial Biotransformation [20]: Compound NOT metabolized

SMILES: CC(=O)Nc1ccc(OC(C)=O)cc1 [DIACETAMATE]
- Bacterial Biotransformation [1]: Compound metabolized
- Bacterial Biotransformation [2]: Compound metabolized
- Bacterial Biotransformation [3]: Compound metabolized
- Bacterial Biotransformation [4]: Compound metabolized
- Bacterial Biotransformation [5]: Compound metabolized
- Bacterial Biotransformation [6]: Compound metabolized
- Bacterial Biotransformation [7]: Compound metabolized
- Bacterial Biotransformation [8]: Compound metabolized
- Bacterial Biotransformation [9]: Compound metabolized
- Bacterial Biotransformation [10]: Compound metabolized
- Bacterial Biotransformation [11]: Compound metabolized
- Bacterial Biotransformation [12]: Compound metabolized
- Bacterial Biotransformation [13]: Compound metabolized
- Bacterial Biotransformation [14]: Compound metabolized
- Bacterial Biotransformation [15]: Compound metabolized
- Bacterial Biotransformation [16]: Compound metabolized
- Bacterial Biotransformation [17]: Compound metabolized
- Bacterial Biotransformation [18]: Compound metabolized
- Bacterial Biotransformation [19]: Compound metabolized
- Bacterial Biotransformation [20]: Compound metabolized

SMILES: CN(C)C(=O)Oc1cccc([N+](C)(C)C)c1.[Br-] [NEOSTIGMINE BROMIDE]
- Bacterial Biotransformation [1]: Compound NOT metabolized
- Bacterial Biotransformation [2]: Compound NOT metabolized
- Bacterial Biotransformation [3]: Compound NOT metabolized
- Bacterial Biotransformation [4]: Compound NOT metabolized
- Bacterial Biotransformation [5]: Compound NOT metabolized
- Bacterial Biotransformation [6]: Compound NOT metabolized
- Bacterial Biotransformation [7]: Compound NOT metabolized
- Bacterial Biotransformation [8]: Compound NOT metabolized
- Bacterial Biotransformation [9]: Compound NOT metabolized
- Bacterial Biotransformation [10]: Compound NOT metabolized
- Bacterial Biotransformation [11]: Compound NOT metabolized
- Bacterial Biotransformation [12]: Compound NOT metabolized
- Bacterial Biotransformation [13]: Compound NOT metabolized
- Bacterial Biotransformation [14]: Compound NOT metabolized
- Bacterial Biotransformation [15]: Compound NOT metabolized
- Bacterial Biotransformation [16]: Compound NOT metabolized
- Bacterial Biotransformation [17]: Compound NOT metabolized
- Bacterial Biotransformation [18]: Compound NOT metabolized
- Bacterial Biotransformation [19]: Compound NOT metabolized
- Bacterial Biotransformation [20]: Compound NOT metabolized

SMILES: CCOc1cc(CC(=O)N[C@@H](CC(C)C)c2ccccc2N2CCCCC2)ccc1C(=O)O [REPAGLINIDE]
- Bacterial Biotransformation [1]: Compound metabolized
- Bacterial Biotransformation [2]: Compound metabolized
- Bacterial Biotransformation [3]: Compound metabolized
- Bacterial Biotransformation [4]: Compound metabolized
- Bacterial Biotransformation [5]: Compound metabolized
- Bacterial Biotransformation [6]: Compound NOT metabolized
- Bacterial Biotransformation [7]: Compound metabolized
- Bacterial Biotransformation [8]: Compound metabolized
- Bacterial Biotransformation [9]: Compound metabolized
- Bacterial Biotransformation [10]: Compound metabolized
- Bacterial Biotransformation [11]: Compound NOT metabolized
- Bacterial Biotransformation [12]: Compound metabolized
- Bacterial Biotransformation [13]: Compound metabolized
- Bacterial Biotransformation [14]: Compound metabolized
- Bacterial Biotransformation [15]: Compound NOT metabolized
- Bacterial Biotransformation [16]: Compound metabolized
- Bacterial Biotransformation [17]: Compound NOT metabolized
- Bacterial Biotransformation [18]: Compound metabolized
- Bacterial Biotransformation [19]: Compound metabolized
- Bacterial Biotransformation [20]: Compound metabolized

SMILES: COC(=O)[C@H](c1ccccc1Cl)N1CCc2sccc2C1.O=S(=O)(O)O [CLOPIDOGREL BISULFATE]
- Bacterial Biotransformation [1]: Compound metabolized
- Bacterial Biotransformation [2]: Compound metabolized
- Bacterial Biotransformation [3]: Compound metabolized
- Bacterial Biotransformation [4]: Compound metabolized
- Bacterial Biotransformation [5]: Compound metabolized
- Bacterial Biotransformation [6]: Compound metabolized
- Bacterial Biotransformation [7]: Compound metabolized
- Bacterial Biotransformation [8]: Compound NOT metabolized
- Bacterial Biotransformation [9]: Compound metabolized
- Bacterial Biotransformation [10]: Compound metabolized
- Bacterial Biotransformation [11]: Compound metabolized
- Bacterial Biotransformation [12]: Compound metabolized
- Bacterial Biotransformation [13]: Compound metabolized
- Bacterial Biotransformation [14]: Compound metabolized
- Bacterial Biotransformation [15]: Compound metabolized
- Bacterial Biotransformation [16]: Compound metabolized
- Bacterial Biotransformation [17]: Compound metabolized
- Bacterial Biotransformation [18]: Compound metabolized
- Bacterial Biotransformation [19]: Compound metabolized
- Bacterial Biotransformation [20]: Compound metabolized

SMILES: CCN(C(C)=O)c1cccc(-c2ccnc3c(C#N)cnn23)c1 [ZALEPLON]
- Bacterial Biotransformation [1]: Compound metabolized
- Bacterial Biotransformation [2]: Compound metabolized
- Bacterial Biotransformation [3]: Compound metabolized
- Bacterial Biotransformation [4]: Compound metabolized
- Bacterial Biotransformation [5]: Compound metabolized
- Bacterial Biotransformation [6]: Compound NOT metabolized
- Bacterial Biotransformation [7]: Compound metabolized
- Bacterial Biotransformation [8]: Compound NOT metabolized
- Bacterial Biotransformation [9]: Compound metabolized
- Bacterial Biotransformation [10]: Compound NOT metabolized
- Bacterial Biotransformation [11]: Compound NOT metabolized
- Bacterial Biotransformation [12]: Compound metabolized
- Bacterial Biotransformation [13]: Compound NOT metabolized
- Bacterial Biotransformation [14]: Compound metabolized
- Bacterial Biotransformation [15]: Compound metabolized
- Bacterial Biotransformation [16]: Compound metabolized
- Bacterial Biotransformation [17]: Compound NOT metabolized
- Bacterial Biotransformation [18]: Compound metabolized
- Bacterial Biotransformation [19]: Compound metabolized
- Bacterial Biotransformation [20]: Compound NOT metabolized

SMILES: CC(C)(C)NCC(O)c1cc(Cl)c(N)c(Cl)c1 (stereo not given) [CLENBUTEROL]
- Bacterial Biotransformation [1]: Compound NOT metabolized
- Bacterial Biotransformation [2]: Compound NOT metabolized
- Bacterial Biotransformation [3]: Compound NOT metabolized
- Bacterial Biotransformation [4]: Compound NOT metabolized
- Bacterial Biotransformation [5]: Compound NOT metabolized
- Bacterial Biotransformation [6]: Compound NOT metabolized
- Bacterial Biotransformation [7]: Compound NOT metabolized
- Bacterial Biotransformation [8]: Compound NOT metabolized
- Bacterial Biotransformation [9]: Compound NOT metabolized
- Bacterial Biotransformation [10]: Compound NOT metabolized
- Bacterial Biotransformation [11]: Compound NOT metabolized
- Bacterial Biotransformation [12]: Compound NOT metabolized
- Bacterial Biotransformation [13]: Compound NOT metabolized
- Bacterial Biotransformation [14]: Compound NOT metabolized
- Bacterial Biotransformation [15]: Compound NOT metabolized
- Bacterial Biotransformation [16]: Compound NOT metabolized
- Bacterial Biotransformation [17]: Compound NOT metabolized
- Bacterial Biotransformation [18]: Compound NOT metabolized
- Bacterial Biotransformation [19]: Compound NOT metabolized
- Bacterial Biotransformation [20]: Compound NOT metabolized

SMILES: CCc1oc2ccccc2c1C(=O)c1cc(Br)c(O)c(Br)c1 [BENZBROMARONE]
- Bacterial Biotransformation [1]: Compound metabolized
- Bacterial Biotransformation [2]: Compound metabolized
- Bacterial Biotransformation [3]: Compound metabolized
- Bacterial Biotransformation [4]: Compound metabolized
- Bacterial Biotransformation [5]: Compound NOT metabolized
- Bacterial Biotransformation [6]: Compound NOT metabolized
- Bacterial Biotransformation [7]: Compound NOT metabolized
- Bacterial Biotransformation [8]: Compound metabolized
- Bacterial Biotransformation [9]: Compound metabolized
- Bacterial Biotransformation [10]: Compound NOT metabolized
- Bacterial Biotransformation [11]: Compound metabolized
- Bacterial Biotransformation [12]: Compound metabolized
- Bacterial Biotransformation [13]: Compound NOT metabolized
- Bacterial Biotransformation [14]: Compound NOT metabolized
- Bacterial Biotransformation [15]: Compound NOT metabolized
- Bacterial Biotransformation [16]: Compound metabolized
- Bacterial Biotransformation [17]: Compound NOT metabolized
- Bacterial Biotransformation [18]: Compound metabolized
- Bacterial Biotransformation [19]: Compound NOT metabolized
- Bacterial Biotransformation [20]: Compound NOT metabolized
